The text below walks through data of PMC2376334, “Penetration of capecitabine and its metabolites into malignant and healthy tissues of patients with advanced breast cancer” (British Journal of Cancer, 2003).

Data set [1] in a line: Plasma pharmacokinetics of free drug after oral capecitabine in breast cancer patients. Type of data set: in vivo, human. To be noted: for Cmax / AUC(0-t) / Tmax / half-life / concentration at 1 day: human, plasma; for AUC(0-t): read-out: AUC0−5 h; for concentration at 1 day: one patient, day 1, slow absorption kinetics, read-out: plasma concentrations; for plasma concentrations: same patient, end of the first cycle (days 12–14). On the procedure:
In parallel, a plastic cannula was inserted into an antecubital vein to monitor blood concentrations of the study drug at 30-min intervals. A total of 10 capecitabine-naive patients were studied after the first morning dose of day 1. Three of them were monitored once again between days 12 and 14 of cycle 1.
(§1) After thawing, 100 μl plasma were centrifuged through Centrisart-C4 filter units with a nominal molecular weight cutoff=10 000 (Sartorius, Germany) for 30 min at 37°C to separate free drug from protein-bound drug. […] Capecitabine, DFCR, DFUR (supplied by Roche, Basel, Switzerland), and FU (Sigma, St Louis, MO, USA) were evaluated in 200 mM tetraborate buffer (pH=9.5) monitoring the absorbance at three different wavelengths (capecitabine: 297 nm, DFCR: 282 nm, DFUR and FU: 268 nm). […] The intra-assay coefficient of variation for this method ranged from 3.4 to 6.9% with an interassay coefficient of variation ranging from 6.7 to 10.4%.

A short description of data set [2]: Microdialysis pharmacokinetics in the interstitium of a cutaneous metastasis (tumour). The text has this:
(§2) Patients were in a supine position throughout the study period. Commercially available microdialysis probes (CMA 10®, CMA, Stockholm, Sweden) were inserted into a suitable cutaneous metastasis. A second microdialysis probe was inserted horizontally into the subcutaneous connective tissue of one thigh. The surface of the disinfected skin was punctured according to a previously described procedure ([Müller et al, 1995]). The position of the probes in the metastasis was established by ultrasound scanning. Subsequently, the microdialysis system was connected and perfused with Ringer's solution at a flow rate of 1.5 μl min^−1 by a microinfusion-pump (Precidor®; Infors-AG, Basel, Switzerland). After a 30 min baseline sampling period, probe calibration for capecitabine and FU was performed for a period of 30 min according to a retrodialysis procedure ([Stahle et al, 1991]). After a wash-out period of 30 min, the study drug was administered in the scheduled dose. Sampling was continued at 30-min intervals up to 300 min.
(§3) Sample collection and analysis of microdialysates and blood samples by capillary electrophoresis were performed according to a validated method with minor modifications ([Mader et al, 1998]). After thawing, 100 μl plasma were centrifuged through Centrisart-C4 filter units with a nominal molecular weight cutoff=10 000 (Sartorius, Germany) for 30 min at 37°C to separate free drug from protein-bound drug. […] Capecitabine, DFCR, DFUR (supplied by Roche, Basel, Switzerland), and FU (Sigma, St Louis, MO, USA) were evaluated in 200 mM tetraborate buffer (pH=9.5) monitoring the absorbance at three different wavelengths (capecitabine: 297 nm, DFCR: 282 nm, DFUR and FU: 268 nm).
(§4) To obtain absolute interstitial concentrations from dialysate concentrations, microdialysis probes were calibrated for in vivo recovery rates according to the retrodialysis method ([Müller et al, 1995],[1997]). The principle of this method relies on the assumption that the diffusion process is quantitatively equal in both directions across the semipermeable membrane. Therefore, the study drug is added to the perfusate and the disappearance rate through the membrane is taken as the in vivo recovery. The in vivo recovery value is calculated as: […]
(§5) Absolute interstitial fluid concentrations of free drug were calculated from dialysate concentrations by the following equation: […]
(§6) The following pharmacokinetic parameters were determined: AUC calculated using the trapezoidal rule, maximum concentration (cmax), time to maximum concentration (tmax), and elimination half-life (t1/2). For statistical calculations, pharmacokinetic parameters derived from different compartments were compared using the paired Wilcoxon test.

Data set [3] can be described thus: Microdialysis pharmacokinetics in the interstitium of subcutaneous connective tissue. To be noted: human; for AUC(0-t) / Cmax / Tmax / half-life: po, 1250 mg.
Excerpt: as §2, §3, §4, §5, §6

Data set [4] can be described thus: In vitro plasma protein binding (ultrafiltration). In kind it is in vitro ADME. Here is the method:
as §1
The plasma protein binding of DFCR, DFUR, and FU was <4% up to 100 μg substance (ml plasma)^−1. In contrast, the plasma protein binding of capecitabine was determined to be 60% by in vitro binding experiments (data not shown).

The conditions of data set [5]: after capecitabine, cited from earlier work.
Details of data set [6]: method as in Mackean et al, 1998. To be noted: most slowly eliminating compound; ref Mackean et al, 1998; cited from earlier work.
[7] abbreviates: po, free drug, median, n=10, 1250 mg capecitabine m^−2 orally, day 1, read-out: cmax.
Setting [8] is: po, median, n=10, 1250 mg capecitabine m^−2 orally.
Where [9] appears, read: po, median, n=10, 1250 mg capecitabine m^−2 orally, read-out: tmax.
The mark [10] stands for this setting: median of single-patient ratios, n=10.
[11] abbreviates: oral, 1250 mg m^−2, Ratio of AUC0−5 h s.c. Tissue/plasma, median of single-patient ratios, n=10.
Where [12] appears, read: up to 100 μg substance (ml plasma)^−1.
[13] abbreviates: tissue biopsies, colorectal tumours, ref Schüller et al, 2000.

The Cmax is the highest concentration seen after dosing. As usually defined, the Tmax is the time from dosing to the highest level. By fraction unbound is commonly meant the share of the substance not bound to proteins or other matrix. A lower fraction unbound goes with little free substance. Regarding `O=c1[nH]cc(F)c(=O)[nH]1` [FU, 5-fluorouracil, reference compound], the Cmax amounted to 0.25 µg/mL in data set [1] (setting [7]); 0.26 µg/mL in data set [2] (human, po, 1250 mg); 0.33 µg/mL in data set [3]. In addition, the results for the AUC(0-t) in data set [1] (setting [8]) and in data set [3] were 0.29 µg·h/mL and 0.36 µg·h/mL, respectively. Besides, the Tmax in data set [1] (setting [9]) turned out to be 2.5 h; in data set [2] (human, po, 1250 mg), 3 h; in data set [3] it was 2 h. Moreover, in data set [1] (rarely exceeding, oral capecitabine regimen), the “FU levels in plasma” value was ≤ 0.5 µg/mL. Moreover, the Kp came to 0.66 in data set [2] (human, oral, 1250 mg m^−2) and 1.53 in data set [3] (setting [11]). Besides, in data set [2] (setting [10]), the “Ratio of AUC0−5 h Tumour/s.c. tissue” value stood at 0.66. Further, the “detection in tumour interstitium” value in data set [2] (one patient, day 1) is listed as “not observed”. Further, the fraction unbound in data set [4] (setting [12]) was > 0.96. Besides, the mean tumour/plasma ratio in data set [5] (patients with colorectal tumours, ref Schüller et al (2000)) was 21. Moreover, the “median ratio tumour/healthy tissue of FU concentration” value in data set [5] (setting [13]) is listed as 2.9. Further, the “median tumour/plasma ratio of FU concentration” value in data set [5] (setting [13]) was 16.6.

In general, half-life refers to how long it takes for the measured level to halve. Low values mean rapid decline, high ones slow decline. Consider `CCCCCOC(=O)Nc1nc(=O)n([C@@H]2O[C@H](C)[C@@H](O)[C@H]2O)cc1F` [Capecitabine], for which the Cmax in data set [1] (oral, 1250 mg m^−2, capecitabine-naive patients, range between patients, read-out: range of cmax) is 0.64 to 15.4 µg/mL; in data set [1] (setting [7]), 2.34 µg/mL; in data set [2] (human, po, 1250 mg), 2.66 µg/mL; in data set [3] it was 2.7 µg/mL. Besides, the Tmax is 1 to 3 h in data set [1] (oral, 1250 mg m^−2, capecitabine-naive patients, range between patients, read-out: range of tmax); 1.75 h in data set [1] (setting [9]); 2.5 h in data set [2] (human, po, 1250 mg); 2.25 h in data set [3]. Moreover, the half-life is 0.5 h in data set [1] (setting [8]); 0.5 h in data set [2] (human, po, 1250 mg); 0.59 h in data set [3]. For the same compound, the AUC(0-t) came to 2.36 µg·h/mL in data set [1] (setting [8]) and 3.16 µg·h/mL in data set [3]. In addition, the Kp in data set [2] (human, oral, 1250 mg m^−2) is 1.76; in data set [3] (setting [11]) it was 1.31; in data set [3] (oral, 1250 mg m^−2, ratio AUCconnective tissue/AUCplasma, subgroup of four patients) it was > 2. In data set [2] (setting [10]), the “Ratio of AUC0−5 h Tumour/s.c. tissue” value came to 1.11. In data set [4] (plasma, in vitro binding experiments (data not shown)), this compound had a fraction unbound of 0.4.

Turning to `C[C@H]1O[C@@H](n2cc(F)c(=O)[nH]c2=O)[C@H](O)[C@@H]1O` [DFUR, 5′-deoxy-5-fluorouridine], the concentration at 1 day in data set [1] (oral, 1250 mg m^−2) is ≤ 4 µg/mL. For the same compound, the Cmax in data set [1] (setting [7]) is 3.65 µg/mL. Also, in data set [1] (setting [8]), the half-life is 0.8 h and the AUC(0-t) was determined as 6.42 µg·h/mL. The Tmax in data set [1] (setting [9]) was found to be 2 h. Also, the plasma concentrations result in data set [1] is on record as “about 10 μg ml^−1”. In addition, in data set [2] (human, in vivo), the Kp came out at 0.53 and the “Ratio of AUC0−5 h Tumour/s.c. tissue” value is 1.20. Besides, in data set [2] (human, in vivo, po, 1250 mg), the “AUC0−5 h” value came out at 3.35 μg ml^ 1 h. Also, in data set [3] (in vivo, Ratio of AUC0−5 h s.c. Tissue/plasma), the Kp amounted to 0.44. This compound also returned an AUC(0-t) in data set [3] (in vivo) of 2.75 µg·h/mL. Also, the fraction unbound in data set [4] (setting [12]) is > 0.96.

Take `C[C@H]1O[C@@H](n2cc(F)c(N)nc2=O)[C@H](O)[C@@H]1O` [DFCR, 5′-deoxy-5-fluorocytidine]: the concentration at 1 day in data set [1] (oral, 1250 mg m^−2) is ≤ 4 µg/mL. Further, the Cmax in data set [1] (setting [7]) was 6.53 µg/mL; in data set [2] (human, po, 1250 mg) it was 4.22 µg/mL; in data set [3], 4.37 µg/mL. Besides, the half-life in data set [1] (setting [8]) is 0.86 h; in data set [2] (human, po, 1250 mg) it was 0.87 h; in data set [3], 0.76 h. The AUC(0-t) in data set [1] (setting [8]) amounted to 11.3 µg·h/mL; in data set [3], 8.4 µg·h/mL. Further, the Tmax in data set [1] (setting [9]) stood at 1.75 h; in data set [2] (human, po, 1250 mg), 2.5 h; in data set [3] it was 2.5 h. For the same compound, the plasma concentrations result in data set [1] is “about 10 μg ml^−1”. Besides, the Kp in data set [2] (human, oral, 1250 mg m^−2) is 0.67; in data set [3] (setting [11]) it was 0.67. In addition, the “Ratio of AUC0−5 h Tumour/s.c. tissue” value in data set [2] (setting [10]) amounted to 1.12. Further, the fraction unbound in data set [4] (setting [12]) was > 0.96. Further, the plasma half-life in data set [6] is recorded as 1.22 h.
